According to patent US6737383B1, “Herbicidal oxadiazolidines” (priority 1999, dated 2004):

Key:
[1] = test system: bedstraw; test: Test B pre/postemergence bedstraw; assay type: in vivo, Galium aparine
Method in brief: (§1)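 Herbicidal effect was estimated by eye on a ten-point control scale after plants spent twelve to sixteen days in a greenhouse following soil or foliar treatment. Foliar sprays targeted plants at one to four leaves; all doses were formulated in a non-phytotoxic solvent with surfactant.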

[2] = test system: blackgrass; test: Test B pre/postemergence blackgrass; assay type: in vivo, Alopecurus myosuroides
Method in brief: as §1

[3] = test system: surinam grass; test: Test B pre/postemergence surinam grass; assay type: in vivo, Brachiaria decumbens; details: Postemergence
Method in brief: as §1

[4] = test system: cocklebur; test: Test B pre/postemergence cocklebur; assay type: in vivo, Xanthium strumarium
Method in brief: as §1

[5] = test system: corn; test: Test B pre/postemergence corn; assay type: in vivo, Zea mays
Method in brief: as §1

[6] = test system: crabgrass; test: Test B pre/postemergence crabgrass; assay type: in vivo, Digitaria sanguinalis
Method in brief: as §1

[7] = test system: giant foxtail; test: Test B pre/postemergence giant foxtail; assay type: in vivo, Setaria faberii
Method in brief: as §1

[8] = test system: morningglory; test: Test B pre/postemergence morningglory; assay type: in vivo, Ipomoea hederacea
Method in brief: as §1

[9] = test system: pigweed; test: Test B pre/postemergence pigweed; assay type: in vivo, Amaranthus retroflexus
Method in brief: as §1

[10] = test system: rape; test: Test B pre/postemergence rape; assay type: in vivo, Brassica napus
Method in brief: as §1

[11] = test system: soybean; test: Test B pre/postemergence soybean; assay type: in vivo, Glycine max
Method in brief: as §1

[12] = test system: sugar beet; test: Test B pre/postemergence sugar beet; assay type: in vivo, Beta vulgaris
Method in brief: as §1

[13] = test system: velvetleaf; test: Test B pre/postemergence velvetleaf; assay type: in vivo, Abutilon theophrasti
Method in brief: as §1

[14] = test system: wheat; test: Test B pre/postemergence wheat; assay type: in vivo, Triticum aestivum
Method in brief: as §1

[15] = test system: wild oat; test: Test B pre/postemergence wild oat; assay type: in vivo, Avena fatua
Method in brief: as §1

[16] = test system: purple nutsedge; test: Test B pre/postemergence purple nutsedge; assay type: in vivo, Cyperus rotundus
Method in brief: as §1

[17] = Postemergence, Rate 62 g/ha, scale 0 to 10, 0 is no effect, 10 is complete control
[18] = Postemergence, Rate 125 g/ha, scale of 0 to 10 where 0 is no effect and 10 is complete control
[19] = Preemergence, Rate 125 g/ha, scale of 0 to 10 where 0 is no effect and 10 is complete control
[20] = Preemergence, Rate 250 g/ha, scale 0 (no effect) to 10 (complete control)
[21] = Rate 62 g/ha, Preemergence, scale 0 to 10
[22] = Rate 250 g/ha, Postemergence, scale 0 to 10, 0 is no effect, 10 is complete control
[23] = Rate 500 g/ha, Postemergence, scale 0 to 10, 0 is no effect, 10 is complete control
[24] = Rate 500 g/ha, Preemergence, scale 0 to 10 (0 no effect, 10 complete control)

## CC(CBr)Cn1c(=O)on(C(=O)N(c2ccc(F)cc2)C(C)C)c1=O (centres unmarked) [Compound 752]
[1]; [17]
  Plant response rating, Bedstraw: 0
[1]; [18]
  Bedstraw plant response rating: 0
[1]; [19]
  Plant response rating, Bedstraw: 10
[1]; [20]
  Bedstraw plant response rating: 10
[1]; [21]
  Bedstraw plant response rating: 0
[1]; [22]
  Bedstraw plant response rating: 2
[1]; [23]
  Bedstraw plant response rating: 2
[1]; [24]
  Bedstraw plant response rating: 10
[2]; [17]
  Plant response rating, Blackgrass: 0
[2]; [18]
  Blackgrass plant response rating: 2
[2]; [19]
  Plant response rating, Blackgrass: 9
[2]; [20]
  Blackgrass plant response rating: 9
[2]; [21]
  Blackgrass plant response rating: 4
[2]; [22]
  Blackgrass plant response rating: 6
[2]; [23]
  Blackgrass plant response rating: 6
[2]; [24]
  Blackgrass plant response rating: 10
[3]; Rate 62 g/ha, scale 0 to 10, 0 is no effect, 10 is complete control
  Plant response rating, B. signalgrass: 0
[3]; Rate 125 g/ha, scale of 0 to 10 where 0 is no effect and 10 is complete control
  B. signalgrass plant response rating: 0
[3]; Rate 250 g/ha, scale 0 to 10, 0 is no effect, 10 is complete control
  B. signalgrass plant response rating: 2
[3]; Rate 500 g/ha, scale 0 to 10, 0 is no effect, 10 is complete control
  B. signalgrass plant response rating: 6
[4]; [17]
  Plant response rating, Cocklebur: 0
[4]; [18]
  Cocklebur plant response rating: 3
[4]; [19]
  Plant response rating, Cocklebur: 0
[4]; [20]
  Cocklebur plant response rating: 0
[4]; [21]
  Cocklebur plant response rating: 0
[4]; [23]
  Cocklebur plant response rating: 3
[4]; [24]
  Cocklebur plant response rating: 0
[5]; [17]
  Plant response rating, Corn: 0
[5]; [18]
  Corn plant response rating: 0
[5]; [19]
  Plant response rating, Corn: 0
[5]; [20]
  Corn plant response rating: 0
[5]; [21]
  Corn plant response rating: 0
[5]; [22]
  Corn plant response rating: 0
[5]; [23]
  Corn plant response rating: 0
[5]; [24]
  Corn plant response rating: 0
[6]; [17]
  Plant response rating, Crabgrass: 3
[6]; [18]
  Crabgrass plant response rating: 3
[6]; [19]
  Plant response rating, Crabgrass: 9
[6]; [20]
  Crabgrass plant response rating: 10
[6]; [21]
  Crabgrass plant response rating: 9
[6]; [22]
  Crabgrass plant response rating: 8
[6]; [23]
  Crabgrass plant response rating: 10
[6]; [24]
  Crabgrass plant response rating: 10
[7]; [18]
  Giant foxtail plant response rating: 9
[7]; [19]
  Plant response rating, Giant foxtail: 10
[7]; [20]
  Giant foxtail plant response rating: 10
[7]; [21]
  Giant foxtail plant response rating: 10
[7]; [22]
  Giant foxtail plant response rating: 9
[7]; [23]
  Giant foxtail plant response rating: 9
[7]; [24]
  Giant foxtail plant response rating: 10
[8]; [17]
  Plant response rating, Morningglory: 2
[8]; [18]
  Morningglory plant response rating: 2
[8]; [19]
  Plant response rating, Morningglory: 0
[8]; [20]
  Morningglory plant response rating: 0
[8]; [21]
  Morningglory plant response rating: 0
[8]; [22]
  Morningglory plant response rating: 8
[8]; [23]
  Morningglory plant response rating: 9
[8]; [24]
  Morningglory plant response rating: 0
[9]; [17]
  Plant response rating, Redroot pigweed: 0
[9]; [18]
  Redroot pigweed plant response rating: 5
[9]; [19]
  Plant response rating, Redroot pigweed: 2
[9]; [20]
  Redroot pigweed plant response rating: 10
[9]; [21]
  Redroot pigweed plant response rating: 0
[9]; [22]
  Redroot pigweed plant response rating: 5
[9]; [23]
  Redroot pigweed plant response rating: 9
[9]; [24]
  Redroot pigweed plant response rating: 10
[10]; [17]
  Plant response rating, Rape: 2
[10]; [18]
  Rape plant response rating: 2
[10]; [19]
  Plant response rating, Rape: 3
[10]; [20]
  Rape plant response rating: 5
[10]; [21]
  Rape plant response rating: 0
[10]; [22]
  Rape plant response rating: 4
[10]; [23]
  Rape plant response rating: 4
[10]; [24]
  Rape plant response rating: 5
[11]; [17]
  Plant response rating, Soybean: 4
[11]; [19]
  Plant response rating, Soybean: 0
[11]; [20]
  Soybean plant response rating: 0
[11]; [21]
  Soybean plant response rating: 0
[11]; [22]
  Soybean plant response rating: 6
[11]; [23]
  Soybean plant response rating: 6
[11]; [24]
  Soybean plant response rating: 0
[12]; [17]
  Plant response rating, Sugarbeets: 3
[12]; [19]
  Plant response rating, Sugarbeets: 0
[12]; [20]
  Sugarbeets plant response rating: 3
[12]; [21]
  Sugarbeets plant response rating: 0
[12]; [22]
  Sugarbeets plant response rating: 3
[12]; [23]
  Sugarbeets plant response rating: 3
[12]; [24]
  Sugarbeets plant response rating: 3
[13]; [17]
  Plant response rating, Velvetleaf: 0
[13]; [19]
  Plant response rating, Velvetleaf: 0
[13]; [20]
  Velvetleaf plant response rating: 0
[13]; [21]
  Velvetleaf plant response rating: 0
[13]; [22]
  Velvetleaf plant response rating: 2
[13]; [23]
  Velvetleaf plant response rating: 2
[13]; [24]
  Velvetleaf plant response rating: 2
[14]; [17]
  Plant response rating, Wheat: 0
[14]; [19]
  Plant response rating, Wheat: 0
[14]; [20]
  Wheat plant response rating: 0
[14]; [21]
  Wheat plant response rating: 0
[14]; [22]
  Wheat plant response rating: 5
[14]; [23]
  Wheat plant response rating: 5
[14]; [24]
  Wheat plant response rating: 0
[15]; [17]
  Plant response rating, Wild oats: 0
[15]; [19]
  Plant response rating, Wild oats: 0
[15]; [20]
  Wild oats plant response rating: 7
[15]; [21]
  Wild oats plant response rating: 0
[15]; [22]
  Wild oats plant response rating: 0
[15]; [23]
  Wild oats plant response rating: 0
[15]; [24]
  Wild oats plant response rating: 8
[16]; [17]
  Plant response rating, Nutsedge: 0
[16]; [18]
  Nutsedge plant response rating: 0
[16]; [19]
  Plant response rating, Nutsedge: 0
[16]; [21]
  Nutsedge plant response rating: 0
[16]; [22]
  Nutsedge plant response rating: 0
[16]; [23]
  Nutsedge plant response rating: 0
[16]; [24]
  Nutsedge plant response rating: 0
